# Results reported in PubChem BioAssay AID488890 (Southern Research Specialized Biocontainment Screening …, 2010).
# Results filed as inconclusive are left out. Activity calls are given as the source filed them. The rule behind the calls is not given here.
# Test system: Mycobacterium tuberculosis non-replicating, growth inhibition
# Assay: growth inhibition of non-replicating M. tuberculosis (AID 488890)
row,SMILES,IC50
1,Cc1ccccc1OCCC(=O)OCC(=O)NNC(=O)c1cccs1,21.4 µM (inactive)
2,O=C(Nc1nc2ccccc2[nH]1)c1cccc([N+](=O)[O-])c1,33.2 µM (inactive)
3,Cc1cccc(NC(=O)c2cc3ccccc3o2)c1,3.23 µM
4,COC(=O)COc1ccc(S(=O)(=O)NCc2ccc3c(c2)OCO3)cc1,14.3 µM (inactive)
5,C=CCNc1nc(C(=O)OCC(=O)c2cccc(Br)c2)cs1,20.8 µM (inactive)
6,Cc1cc(O)c(-c2cc(O)c(C)cc2O)cc1O,2.52 µM
7,OC(CNCC1CCCO1)Cn1c2ccc(Cl)cc2c2cc(Cl)ccc21 (centres undefined),8.38 µM
8,Cc1onc(-c2c(F)cccc2Cl)c1C(=O)O/N=C(\N)c1ccc([N+](=O)[O-])o1,5.96 µM
9,O=C(COc1ccc(Cl)cc1)Nc1ccc2[nH]ncc2c1,26.5 µM (inactive)
10,O=C(OCn1nnc2ccccc2c1=O)c1ccc(Br)o1,11.6 µM (inactive)
11,O=C(NCCCN1CCCC1)c1cc2c(Cl)nc3ccccc3c2s1,10.5 µM (inactive)
12,Cc1nc2c(=O)n(C)c(=O)nc-2n(C)n1,8.25 µM
13,CC(=O)c1ccc(C(=O)Nc2nnc(-c3ccc(Cl)cc3)o2)cc1,4.03 µM
14,CCCCSc1nnc(-c2ccc(C)cc2)o1,0.37 µM
15,Cc1ccc(-c2cc(C(F)(F)F)n3nc(C(=O)NCCCn4ccnc4)cc3n2)cc1C,14.1 µM (inactive)
16,CCN(CC)CCCN(C(=O)c1ccco1)c1nc(-c2ccc(C)cc2)cs1,21.9 µM (inactive)
17,COc1ccc(OC(=O)CCc2c[nH]c3ccccc23)cc1,3.37 µM
18,O=C(c1cc([N+](=O)[O-])cc([N+](=O)[O-])c1)N(Cc1nnc(-c2ccccc2Cl)o1)C1CC1,4.46 µM
19,Cc1ccc2nc(/N=C(\N)NC(=O)NC3CCCCC3)nc(C)c2c1,8.34 µM
20,O=C(c1cccc2cccc(O)c12)N1CCCCC1,3.82 µM

row,SMILES,IC50
1,CCOc1cc(C=O)cc(N=Nc2cccc([N+](=O)[O-])c2)c1O,1.31 µM
2,Cc1ccsc1C(=O)OCC(=O)Nc1nnc(-c2ccccc2)o1,18.2 µM (inactive)
3,CCn1nnc(NC(=O)COc2ccc(C3CCCCC3)cc2)n1,1.5 µM
4,O=C(Oc1ccc(F)cc1)c1ccc2c(=O)n3c(nc2c1)CCC3,2.49 µM
5,Cc1cc(OCC(=O)Nc2ccncc2)ccc1Br,3.47 µM
6,Nc1ccccc1C(=O)NNC1=C(C(=O)C(F)(F)F)CCC1,14.7 µM (inactive)
7,O=C(NCCSc1ccccc1)c1ccc(Br)cc1,32.1 µM (inactive)
8,Fc1ccc(-c2ccc(CNCc3ccccn3)o2)cc1Cl,8.76 µM
9,O=C(COC(=O)c1ccccc1)NCc1cccs1,37.4 µM (inactive)
10,C#CCSc1nnc(-c2ccc(C)cc2)o1,0.82 µM
11,CCOC(=O)C1CCCN(Cc2ccc(OCc3ccccc3)cc2)C1 (centres undefined),21.8 µM (inactive)
12,O=C1N(c2ccc3c(c2)OCCO3)C(c2ccccc2)C1(F)F (centres undefined),2.28 µM
13,Cc1nn(C)cc1/C=N/NC(=O)c1sc2ccccc2c1Cl,27.8 µM (inactive)
14,CC(=O)c1ccc(-n2cc(-c3ccc(C(C)(C)C)cc3)[n+]3c2SCCC3)cc1,6.18 µM
15,CCCn1nnnc1NC(=O)c1cc(Cl)ccc1Cl,6.8 µM
16,CC1C/C(=N/NC(=O)c2cccc(F)c2)c2ccc(O)cc2C1 (centres undefined),14 µM (inactive)
17,O=C(Oc1ccccc1)c1cc2ccccc2o1,6.73 µM
18,Cc1ccc(OCCCCn2ccnc2)c(Cl)c1,8.23 µM
19,CCOC(=O)C(C)Oc1cc(Cl)c(C=O)cc1OC (centres undefined),8.06 µM
20,CC(C)N1CCc2c(sc(NC(=O)CCS(=O)(=O)c3ccccc3)c2C#N)C1,39.6 µM (inactive)

row,SMILES,IC50
1,O=[N+]([O-])c1cnc(Nc2ccc(Cl)cn2)c([N+](=O)[O-])c1,1.89 µM
2,CC1=CC(=O)NP(=O)(Oc2ccc3ccccc3c2)N1 (centres undefined),7.95 µM
3,Cn1cccc1/C=N/NC(=O)c1ccncc1,1.96 µM
4,Cc1cc(NCc2ccccn2)n2nc(C)c(-c3ccc(Cl)cc3)c2n1,1.85 µM
5,Cc1ccc(NC(=O)COc2ccccc2CNC(C)(C)CC(C)(C)C)cc1,16.5 µM (inactive)
6,O=C(c1cc(F)ccc1F)C1CCCN(Cc2ccc3nonc3c2)C1 (centres undefined),12.7 µM (inactive)
7,Cc1ccc(-c2noc(CCCC(=O)Nc3cccnc3)n2)cc1,7.61 µM
8,Cc1cc(C(=O)NNc2cc(Cl)ccc2Cl)no1,18.7 µM (inactive)
9,CC1CCCC(NCC(O)COC(c2ccc(F)cc2)c2ccc(F)cc2)C1C (centres undefined),5.8 µM
10,Cc1cccc(NCc2ccc([N+](=O)[O-])s2)c1,22.2 µM (inactive)
11,CCCCCCCC(=O)N/N=C(/C)c1c(O)cc(C)oc1=O,4.26 µM
12,COc1ccc(O)c(C(=O)CC(=O)c2ccc(F)cc2)c1,17.2 µM (inactive)
13,CN1CC=C(/C=C/c2ccc(-c3ccccc3)cc2)CC1,11.4 µM (inactive)
14,CCOC(=O)Cn1c(C)c(Br)c(=O)c2cccc(C)c21,3.76 µM
15,O=C(Nc1nnc(-c2ccco2)o1)c1ccc(Cl)s1,11.2 µM (inactive)
16,CSc1nc(=S)cc(C)[nH]1,6.23 µM
17,O=C(Nc1ccc([N+](=O)[O-])cc1)C1COc2ccccc2O1 (centres undefined),10.2 µM (inactive)
18,CCOc1ccc(Cn2c(=O)oc3ccccc32)cc1,0.83 µM
19,Cc1c(-c2ccc(Br)cc2)nc2ccccn12,18.9 µM (inactive)
